Data on eight molecules can be found in paper doi:10.1101/2024.05.17.594634, “Protein Structure Inspired Drug Discovery” (bioRxiv, 2024).

In one data set the test system is HT29 colon cancer cells. Briefly: Eight-day colony formation assay, HT29. Type of data set: cell-based, human. How it is done:
(§1) We sought to identify compounds that would inhibit the growth of cancer cells, but that also did so selectively. Inhibition of cancer cell growth is a highly sought after attribute of anticancer agents. This was assessed by measuring the ability of a compound to inhibit cell growth in eight-day colony formation assays, examining concentrations ranging from 0.017 to 40 μM. Breast, colon, lung and prostate cancer are four of the most common causes of cancer in the United States, are major causes of cancer cell death, and were examined.[64] Two cell lines for each cancer type were assessed: A549 (adenocarcinoma) and H226 (squamous carcinoma) for lung, MCF-7 (estrogen receptor [ER] positive) and MDA-MB-231 (ER negative) for breast, LNCaP (androgen receptor [AR] positive) and PC3-M (AR negative) for prostate, and HCT116 (wild type p53, mutated KRAS) and HT29 (p53 mutant) for colon.[65]
(§2) In considering effect on cancer cells, for each compound and each cell line tested we calculated the efficacy ratio, i.e., efficacy ratio = (percent of remaining cancer cell colonies)/(percent of remaining bone marrow colonies), at 8 days after treatment with 40 μM compound (S4 Fig). We considered those with an efficacy ratio below 0.5 as active and at least partially selective. The stringency of this is highlighted by considering the effect of 5FU on colon cancer, where it is frequently used clinically in proven curative settings, as well as proven life prolonging settings.[70, 71] […] Even at 5.7 μM, where 5FU is toxic to bone marrow, with hematopoietic colony formation at 38% of control, the efficacy ratio for HT29 cells has only dropped to 0.52. […] It can be seen that compounds segregate to protein sites. Specifically, of 10 compounds meeting this activity criteria (i.e., efficacy ratio <0.5), 3 were directed at the Dxr2 site, 3 at FolC2, 2 at FolC1, 1 at Dxr1 and 1 at TYLT.
(§3) Eight-day colony formation assays of cancer cells were performed as described by us.[87] Briefly, 0.5–1.0 × 10^3 cells were seeded into a 12 well plate, after 24 hours compound added and eight days later colonies (of 3 or more cells) were scored after trypan blue staining. Conditions were in replicates of N = 2. All compounds were stored under desiccated conditions in a sealed container at minus 20°C upon arrival. One day prior to use, they were placed into DMSO, stored at […] as stock solutions, thawed just prior to use, and not reused.

The next data set relates to human CD34+ stem cells. As to the kind of experiment: Bone marrow stem cell (hematopoietic) colony formation assay. The data set is classed as cell-based. Particulars: for mean number of colonies, % of control, 14 day / mean number of colonies, % of control, 8 day: 40 μM compound, mean N=2; for mean number of colonies, % of control, 14 day: 14 days; for mean number of colonies, % of control, 8 day: total colonies at 8 days. Here is the method: In parallel with measuring growth inhibition of cancer cell growth, we measured effect on human hematopoietic stem cells. Hematopoietic stem cells reside in the bone marrow and are the source of mature cells present in blood.[66] Bone marrow is one of the most sensitive organs in the body to drug toxicity, especially so for anticancer drugs where it can approach 100%.[67–69] Bone marrow toxicity was measured by performing hematopoietic colony formation assays on human CD34+ stem cells. The stem cell nature of this assay permitted assessment of trilineage colony formation: granulocytic (white blood cells), erythrocytic (red blood cells) and megakaryocytic (platelets), measured by the formation of CFU-GM (colony-forming-granulocyte-macrophage), BFU-E (erythroid burst-forming unites) and CFU-GEMM (colony-forming unit-granulocyte, erythrocyte, monocyte, megakaryocyte) colonies, respectively. Two measurements were taken. Total colonies at eight days were measured, thereby matching the eight-day time frame of cancer cell colony formation assays. At fourteen days, individual colonies have differentiated, permitting quantification of each lineage. Human hematopoietic stem cell trilineage colony formation assays were performed as previously described by us.[65] Briefly, human cord blood CD34+ cells (catalog #: 70008.5) were purchased from StemCell Technology Inc., and seeded at 1 × 10^4 cells per 35 mm dish. Cells were cultured in MethoCult™ Express (StemCell Technologies, Inc.) semisolid media, per manufacturer’s instructions, in the presence of compound or vehicle control. At eight days colonies, i.e., groups of ≥ 10 cells, were counted. At fourteen days, individual colonies of BFU-E, CFU-GM and CFU-GEMM were identified based on manufacturers’ morphologic characterization criteria. Assays were run in replicates of N = 2; some were run in replicates of N = 3, as denoted.

For a further data set, the system named is H226 lung cancer cells. As to the kind of experiment: Eight-day colony formation assay, H226. Type of data set: cell-based, human. Here is the method:
as §1, §2, §3

The test system of data set [1] is MCF-7 breast cancer cells. As to the kind of experiment: Eight-day colony formation assay, MCF-7. Type of data set: cell-based, human. Here is the method: as §1, §2, §3
Another data set relates to HT116 colon cancer cells. Briefly: Eight-day colony formation assay, HT116. Type of data set: cell-based, human. Here is the method: as §1, §2, §3
In the next data set the test system is A549 lung cancer cells. Briefly: Eight-day colony formation assay, A549. The data set is classed as cell-based, human. How it is done: as §1, §2, §3
Data set [2] deals with LNCaP prostate cancer cells. Briefly: Eight-day colony formation assay, LNCaP. Type of data set: cell-based, human. Here is the method: as §1, §2, §3
Data set [3] relates to HT29, MDA-MB-231 and H226. As to the kind of experiment: NCI-60 cell line screen, other cell lines. The data set is classed as cell-based, human. Particulars: 10 μM X 48 hours. How it is done:
Above findings support the importance of Dxr2 and FolC2 sites, and of Dxr2-017 and FolC2-001 compounds, respectively. The predicted poses of Dxr2-017 bound to the Dxr2 site and FolC2-001 bound to the FolC2 site are shown (Fig 7). The NCI-60 cell line screen evaluates compound growth inhibition and cell toxicity in a highly standardized manner across 60 different cell lines. Dxr2-017 and FolC2-001 were evaluated in this assay (S5 Fig). NCI-60 screens evaluate compounds at 10 μM X 48 hours. […] Of high interest, in the NCI-60 screen Dxr2-017 had relatively high activity against melanoma cell lines, inducing cell death in 5 cell lines ranging from 25–65%, and inhibiting growth in 4 cell lines ranging from 76–96%. Its impact on cell death represents the most striking relative difference in response across cell lines.

The subject of data set [4] is PC3-M prostate cancer cells. Briefly: Eight-day colony formation assay, PC3-M. The data set is classed as cell-based, human. Here is the method:
as §1, §2, §3

The subject of data set [5] is MDA-MB-231 breast cancer cells. Briefly: Eight-day colony formation assay, MDA-MB-231. Type of data set: cell-based, human. Particulars: MDAMB231. How it is done: as §1, §2, §3
The subject of data set [6] is human breast, prostate, colon and lung cancer cells. Briefly: Eight-day colony formation assays, summary across the cancer cell line panel. The data set is classed as cell-based. Here is the method: as §1, §2, §3

On to `O=c1[nH]cc(F)c(=O)[nH]1` [5FU, 5-fluorouracil, reference compound], for which the efficacy ratio with HT29 colon cancer cells (0.82 μM) is recorded as 0.82. The “efficacy ratio (cancer cell colonies to bone marrow colonies at 8 days)” value in the data set with HT29 colon cancer cells (5.7 μM) amounted to 0.52. In addition, in the data set on human CD34+ stem cells (0.82 μM), the “effect on bone marrow” value is listed as “no effect”. In addition, in the data set with human CD34+ stem cells (5.7 μM), the “effect on bone marrow colony formation” value is recorded as “profound suppressive effects” and the “hematopoietic colony formation, % of control” value was 38 % of control. The “effect on bone marrow colony formation” value in the data set on human CD34+ stem cells (40 μM) was “completely suppresses colony formation”.

Consider `Cc1nnsc1C(=O)OCCCn1c(=O)[nH]c2ccccc21` [Dxr2-001], for which, in the data set with human CD34+ stem cells, the “mean number of colonies, % of control, 14 day” value is 93 % of control and the “mean number of colonies, % of control, 8 day” value was 109 % of control.

As to `c1ccc(CCc2n[nH]c(-c3ccccn3)n2)cc1` [FolC1-031], in the data set with human CD34+ stem cells, the “mean number of colonies, % of control, 14 day” value is 85 % of control and the “mean number of colonies, % of control, 8 day” value was 80 % of control.

Take `O=C(Cn1c(=O)oc2ccccc21)N1CCn2c1nc1ccccc12` [FolC2-001]: the “efficacy ratio (cancer cell colonies to bone marrow colonies at 8 days)” value in the data set on H226 lung cancer cells (5.7 μM) was 0.56; with H226 lung cancer cells (40 μM), 0.00; in data set [1] (5.7 μM) it was 0.65; in data set [1] (40 μM), 0.43; in the data set with HT116 colon cancer cells (5.7 μM), 0.85; in the data set with HT116 colon cancer cells (40 μM), 0.60. Further, the “efficacy ratio (cancer cell colonies to bone marrow colonies at 8 days)” value came out at 0.99 in the data set with A549 lung cancer cells (5.7 μM); 0.53 with A549 lung cancer cells (40 μM); 0.82 in [2] (5.7 μM); 0.34 in [2] (40 μM); 0.96 in data set [4] (5.7 μM); 0.41 in data set [4] (40 μM). The “efficacy ratio (cancer cell colonies to bone marrow colonies at 8 days)” value with HT29 colon cancer cells (5.7 μM) is on record as 1.13; in the data set with HT29 colon cancer cells (40 μM), 0.79; in [5] (5.7 μM), 0.81; in data set [5] (40 μM), 0.28. The “activity in NCI-60 screen” value in data set [3] was “against H226”. Further, the “mean number of colonies, % of control, 14 day” value with human CD34+ stem cells is 87 % of control. Besides, the “mean number of colonies, % of control, 8 day” value with human CD34+ stem cells is reported as 108 % of control. The “number of cell lines exhibiting an efficacy ratio below 0.5” value in data set [6] (40 μM) is 5 cell lines. In data set [6] (40 μM), the “relative activity for a given compound, % (% of cells tested where ratio is <0.5)” value is on record as 63%. For the same molecule, the “fold higher mean efficacy ratio than that of Dxr2-017” value in data set [6] (40 μM, cells with ratio below 0.5, P = 0.001) amounted to 9.7 fold. Moreover, in [6] (40 μM, mean ± SEM), the “mean efficacy ratio for cells/compounds where the efficacy ratio is below 0.5” value was 0.29 ± 0.09. In addition, the “efficacy at concentrations below 40 μM” value in [6] is on record as “some degree of efficacy observed”.

Regarding `O=C(CCc1c[nH]c2ccccc12)N1CCSc2ccccc21` [FolC2-005], the “efficacy ratio (cancer cell colonies to bone marrow colonies at 8 days)” value with H226 lung cancer cells (40 μM) worked out at 0.11; in data set [1] (40 μM) it was 0.33; with HT116 colon cancer cells (40 μM), 0.70; in the data set on A549 lung cancer cells (40 μM), 0.69; in [2] (40 μM), 0.28; in [4] (40 μM) it was 0.00. In addition, the figures for the “efficacy ratio (cancer cell colonies to bone marrow colonies at 8 days)” value (with HT29 colon cancer cells (40 μM); in data set [5] (40 μM)) were 0.06 and 0.78, respectively. Moreover, the “mean number of colonies, % of control, 14 day” value in the data set with human CD34+ stem cells is on record as 101 % of control. Moreover, in the data set with human CD34+ stem cells, the “mean number of colonies, % of control, 8 day” value was 105 % of control. Moreover, the “relative activity for a given compound, % (% of cells tested where ratio is <0.5)” value in data set [6] (40 μM) is on record as 63%. Also, the “efficacy at concentrations below 40 μM” value in data set [6] is on record as “A similar phenomenon is observed”.

`O=C(Nc1nnn[nH]1)c1cc(-c2ccccc2)nc2ccccc12` [PRT-051]: in the data set with human CD34+ stem cells, the “mean number of colonies, % of control, 14 day” value is 119 % of control and the “mean number of colonies, % of control, 8 day” value is on record as 93 % of control.

Consider `O=C(Cc1n[nH]c(=O)c2ccccc12)Nn1cnc2ccccc21` [TYLT-001], for which, in the data set with human CD34+ stem cells, the “mean number of colonies, % of control, 14 day” value is on record as 103 % of control and the “mean number of colonies, % of control, 8 day” value is given as 117 % of control.

For `O=C(COC(=O)c1cccs1)c1ccc2[nH]c(=O)[nH]c2c1` [TYLT-003], in the data set with human CD34+ stem cells, the “mean number of colonies, % of control, 14 day” value is 94 % of control and the “mean number of colonies, % of control, 8 day” value is 97 % of control.
